System: SARS-CoV-2
Experiment: Antiviral activity against SARS-CoV-2 Omicron BA.5 variant infected in African green monkey Vero E6 cells assessed as inhibition in viral replication at 25 ug/ml preincubated with cell culture for 1 hr and further infected with virus for 1 hr followed by removal of virus particles and subsequent replacement of medium containing compound measured for 72 hrs post-infection by RT-PCR analysis relative to control
Type: functional
Settings: Severe acute respiratory syndrome coronavirus 2, Omicron BA.5, Vero C1008, time 73 hrs

## O=c1cc(-c2ccccc2)oc2cc(O)c(O)c(O)c12 [BAICALEIN]
  inhibition at 25 µg/mL: > 50%

— ChEMBL document CHEMBL5532636 (Eur J Med Chem, 2023)
